Experimental data published in US12319652B2, “Salts and solid forms of (R)-1-(5-methoxy-1H-indol-1-yl)-N,N-dimethylpropan-2-amine” (priority 2021, dated 2025).

Experiment: Solubility determinations in SIF buffers (FaSSIF, FeSSIF, FaSSGF)
Format: physicochemical
Procedure: At this stage ca. 1 g of each front-runner salt form was prepared. Salt forms that offered significant solubility and stability advantages over the non-ionized API were prioritized. […] Scale Up
The solubility of the salts below was determined in FaSSIF, FeSSIF and FaSSGF by reference to the calibration curve of amorphous compound 1.
Separate portions of compound 1 were weighed out into aluminum boats and were charged to the relevant volumetric flasks. Solutions were made to volume with 1 to 1 (v/v) acetonitrile/purified water to give calibrants of known API concentrations and analyzed by HPLC, suitable to determine the concentration of compound 1 free base in the SIF buffer solubility study.
Each sample (150 mg) was suspended in the relevant SIF buffer (5.0 ml), to give a concentration of 30 mg/ml and maintain at 37° C. for 24 h. The pH was adjusted using 1 M HCl or 1 M NaOH, to ensure that the suspension remains in range.
Sample (1 ml) of the well-stirred representative suspensions was obtained at 1 h, 3 h, 6 h and 24 h and the pH was recorded. The pH of the bulk suspension was re-adjusted when necessary. The obtained sample from each vial was centrifuged, and the supernatant was analysed by HPLC (note, the analyte was diluted, when outside of the calibration range); XRPD analysis was performed on the wet sample pellet for evidence of form change, as well as on the oven-dried pellet (undervacuum at 40° C.).

Which Solubility (FaSSGF (ph 1.6), t = 1 h@37° C.) does the source give for `COc1ccc2c(ccn2C[C@@H](C)N(C)C)c1.O=C(O)/C=C\C(=O)O` [Compound 1 · Maleate] here?
Its Solubility is >30 mg/mL.

And the Solubility (FaSSGF (ph 1.6), t = 3 h@37° C.)?
The Solubility was >30 mg/mL.

And the Solubility (FaSSGF (ph 1.6), t = 6 h@37° C.)?
Its Solubility is >30 mg/mL.

And the Solubility (FaSSGF (ph 1.6), t = 24 h @37° C.)?
The Solubility was >30 mg/mL.

What about the Solubility (FaSSIF (ph 6.5), t = 1 h@37° C.) of the same compound?
Its Solubility is >30 mg/mL.

What about the Solubility (FaSSIF (ph 6.5), t = 3 h@37° C.) of the same compound?
Its Solubility is >30 mg/mL.

What about the Solubility (FaSSIF (ph 6.5), t = 6 h@37° C.) of the same compound?
Its Solubility is >30 mg/mL.

What about the Solubility (FaSSIF (ph 6.5), t = 24 h @37° C.) of the same compound?
Its Solubility is >30 mg/mL.

And the Solubility (FeSSIF (ph 5.0), t = 1 h@37° C.)?
The Solubility was >30 mg/mL.

And the Solubility (FeSSIF (ph 5.0), t = 3 h@37° C.)?
Its Solubility is >30 mg/mL.

And the Solubility (FeSSIF (ph 5.0), t = 6 h@37° C.)?
The Solubility was >30 mg/mL.

What about the Solubility (FeSSIF (ph 5.0), t = 24 h @37° C.) of the same compound?
Its Solubility is >30 mg/mL.

What does the source list for `COc1ccc2c(ccn2C[C@@H](C)N(C)C)c1.O=C(O)c1ccccc1` [Compound 1.Benzoate]?
HPLC peak RRT 1.00 (Compound 1) (input salt before FaSSGF): 99.64; HPLC peak RRT 1.09 (input salt before FaSSGF): 0.03; HPLC peak RRT 1.17 (input salt before FaSSGF): 0.03; HPLC peak RRT 1.18 (input salt before FaSSGF): 0.10; HPLC peak RRT 1.19 (input salt before FaSSGF): 0.02; HPLC peak RRT 1.24 (input salt before FaSSGF): 0.06; HPLC peak RRT 1.28 (input salt before FaSSGF): 0.01; HPLC peak RRT 1.33 (input salt before FaSSGF): 0.10; HPLC peak RRT 0.90 (t = 1 h in FaSSGF): 0.07; HPLC peak RRT 0.92 (t = 1 h in FaSSGF): 0.05; HPLC peak RRT 1.00 (Compound 1) (t = 1 h in FaSSGF): 99.28; HPLC peak RRT 1.07 (t = 1 h in FaSSGF): 0.04; HPLC peak RRT 1.09 (t = 1 h in FaSSGF): 0.06; HPLC peak RRT 1.17 (t = 1 h in FaSSGF): 0.04; HPLC peak RRT 1.19 (t = 1 h in FaSSGF): 0.15; HPLC peak RRT 1.27 (t = 1 h in FaSSGF): 0.11; HPLC peak RRT 1.28 (t = 1 h in FaSSGF): 0.05; HPLC peak RRT 1.33 (t = 1 h in FaSSGF): 0.15; HPLC peak RRT 0.97 (t = 3 h in FaSSGF): 0.04; HPLC peak RRT 1.00 (Compound 1) (t = 3 h in FaSSGF): 99.62; HPLC peak RRT 1.07 (t = 3 h in FaSSGF): 0.03; HPLC peak RRT 1.17 (t = 3 h in FaSSGF): 0.15; HPLC peak RRT 1.33 (t = 3 h in FaSSGF): 0.16; HPLC peak RRT 1.00 (Compound 1) (t = 6 h in FaSSGF): 99.61; HPLC peak RRT 1.17 (t = 6 h in FaSSGF): 0.12; HPLC peak RRT 1.24 (t = 6 h in FaSSGF): 0.08; HPLC peak RRT 1.25 (t = 6 h in FaSSGF): 0.04; HPLC peak RRT 1.32 (t = 6 h in FaSSGF): 0.06; HPLC peak RRT 1.33 (t = 6 h in FaSSGF): 0.09; HPLC peak RRT 1.00 (Compound 1) (t = 24 h in FaSSGF): 99.73; HPLC peak RRT 1.17 (t = 24 h in FaSSGF): 0.15; HPLC peak RRT 1.32 (t = 24 h in FaSSGF): 0.07; HPLC peak RRT 1.33 (t = 24 h in FaSSGF): 0.06
